Entries after “also recorded” stand apart in the source; their conditions may differ.

Experiment [1] has as its system N-acetyl-β-D-gluc (Jack bean). As to the kind of experiment: Glycosidase assay, N-acetyl-β-D-gluc (Jack bean). It counts as biochemical. The conditions noted are these: 0.2 mM; negative value = stabilisation or promotion.
Experimental: (§1) All enzymes and para-nitrophenyl substrates were purchased from Sigma, with the exception of beta-mannosidase which came from Megazyme. Enzymes were assayed at 27° C. in 0.1 M citric acid/0.2M disodium hydrogen phosphate buffers at the optimum pH for the enzyme. The incubation mixture consisted of 10 μl enzyme solution, 10 μl of 1 mg/ml aqueous solution of sample and 50 μl of the appropriate 5 mM para-nitrophenyl substrate made up in buffer at the optimum pH for the enzyme. […] Final absorbances were read at 405 nm using a Versamax microplate reader (Molecular Devices). Assays were carried out in triplicate, and the values given are means of the three replicates per assay.
In the next experiment the test system is β-D-glucosidase. Briefly: Glycosidase assay, β-D-glucosidase. It counts as biochemical. The following applies: 0.2 mM.
Another experiment concerns α-D-galactosidase. Briefly: Glycosidase assay, α-D-galactosidase. It counts as biochemical. The conditions noted are these: 0.2 mM; negative value = stabilisation or promotion.
A further experiment concerns the target T1, α-D-glucosidase (Yeast) (Saccharomyces cerevisiae, UniProt P53341).
T1 construct: purchased Sigma
Briefly: Glycosidase assay, α-D-glucosidase (Yeast). The following applies: 0.2 mM, negative value = stabilisation or promotion of enzyme activity. Type of experiment: biochemical.

A further experiment concerns glucosidases. Briefly: Glycosidase panel, summary in words for glucosidases. Type of experiment: biochemical. The conditions noted are these: 0.2 mM.
In the next experiment the test system is β-D-mannosidase. As to the kind of experiment: Glycosidase assay, β-D-mannosidase. Type of experiment: biochemical. The following applies: 0.2 mM; negative value = stabilisation or promotion.
For experiment [2], the system named is α-D-glucosidase (Bacillus). Briefly: Glycosidase assay, α-D-glucosidase (Bacillus). The following applies: 0.2 mM. Type of experiment: biochemical.
Experimental: as §1
For experiment [3], the system named is N-acetyl-β-D-gluc (Bovine kidney). Briefly: Glycosidase assay, N-acetyl-β-D-gluc (Bovine kidney). Type of experiment: biochemical. The conditions noted are these: 0.2 mM; negative value = stabilisation or promotion.
Experimental: as §1
The target in another experiment is T2, Amyloglucosidase (Aspergillus niger, UniProt P69328).
T2 construct: purchased Sigma
T2 sequence (P69328 25-640): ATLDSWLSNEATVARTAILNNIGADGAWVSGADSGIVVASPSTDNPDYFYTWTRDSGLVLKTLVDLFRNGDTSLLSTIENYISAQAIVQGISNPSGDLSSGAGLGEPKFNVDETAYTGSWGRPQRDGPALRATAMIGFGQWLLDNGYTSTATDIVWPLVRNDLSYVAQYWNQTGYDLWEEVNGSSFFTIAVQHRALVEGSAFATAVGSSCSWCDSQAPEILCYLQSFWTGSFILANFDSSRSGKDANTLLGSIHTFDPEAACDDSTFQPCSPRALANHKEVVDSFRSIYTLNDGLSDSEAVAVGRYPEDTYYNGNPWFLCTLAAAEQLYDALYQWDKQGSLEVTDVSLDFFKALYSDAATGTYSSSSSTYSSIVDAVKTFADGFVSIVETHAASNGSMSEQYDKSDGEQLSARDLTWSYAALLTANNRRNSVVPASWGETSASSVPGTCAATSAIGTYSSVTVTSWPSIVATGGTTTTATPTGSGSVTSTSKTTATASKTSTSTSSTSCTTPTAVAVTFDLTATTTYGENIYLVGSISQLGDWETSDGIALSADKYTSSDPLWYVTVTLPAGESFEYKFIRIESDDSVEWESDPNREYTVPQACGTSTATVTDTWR
Briefly: Glycosidase assay, Amyloglucosidase. The conditions noted are these: 0.2 mM. Type of experiment: biochemical.

A further experiment has as its system α-L-fucosidase. As to the kind of experiment: Glycosidase assay, α-L-fucosidase. The following applies: 0.2 mM. It counts as biochemical.
A further experiment concerns Naringinase. As to the kind of experiment: Glycosidase assay, Naringinase. The following applies: 0.2 mM. Type of experiment: biochemical.
The target of a further experiment is T3, α-D-glucosidase (Rice) (Oryza sativa subsp. japonica, UniProt Q653V7).
T3 construct: purchased Sigma
T3 sequence (Q653V7 34-885): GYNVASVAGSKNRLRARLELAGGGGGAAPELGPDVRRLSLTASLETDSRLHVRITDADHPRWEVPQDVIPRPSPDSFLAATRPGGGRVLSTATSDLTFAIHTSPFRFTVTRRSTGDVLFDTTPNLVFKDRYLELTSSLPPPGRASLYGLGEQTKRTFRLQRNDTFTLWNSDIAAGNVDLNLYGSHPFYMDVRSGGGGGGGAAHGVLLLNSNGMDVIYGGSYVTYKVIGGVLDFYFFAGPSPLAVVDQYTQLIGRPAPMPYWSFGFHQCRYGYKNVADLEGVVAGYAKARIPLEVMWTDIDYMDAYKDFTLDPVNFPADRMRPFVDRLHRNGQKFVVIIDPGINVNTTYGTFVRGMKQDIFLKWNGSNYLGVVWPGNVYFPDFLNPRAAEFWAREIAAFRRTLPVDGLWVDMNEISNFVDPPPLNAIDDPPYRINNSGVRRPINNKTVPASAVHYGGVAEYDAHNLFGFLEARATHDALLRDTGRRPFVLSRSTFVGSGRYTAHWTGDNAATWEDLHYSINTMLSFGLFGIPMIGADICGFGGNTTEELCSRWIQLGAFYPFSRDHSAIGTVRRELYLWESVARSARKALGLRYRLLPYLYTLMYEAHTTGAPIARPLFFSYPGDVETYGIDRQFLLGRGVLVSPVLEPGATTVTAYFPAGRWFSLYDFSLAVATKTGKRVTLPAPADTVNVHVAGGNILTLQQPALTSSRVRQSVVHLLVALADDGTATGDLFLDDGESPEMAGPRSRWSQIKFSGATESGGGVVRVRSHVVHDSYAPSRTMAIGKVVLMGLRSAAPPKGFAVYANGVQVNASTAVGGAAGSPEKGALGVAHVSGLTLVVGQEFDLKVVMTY
Briefly: Glycosidase assay, α-D-glucosidase (Rice). It counts as biochemical. The conditions noted are these: 0.2 mM.

The subject of the next experiment is α-D-mannosidase. Briefly: Glycosidase assay, α-D-mannosidase. Type of experiment: biochemical. The conditions noted are these: 0.2 mM; for percentage inhibition, α-D-mannosidase: negative value = stabilisation or promotion.
The test system of the next experiment is β-D-galactosidase. As to the kind of experiment: Glycosidase assay, β-D-galactosidase. Type of experiment: biochemical. The conditions noted are these: 0.2 mM.
The test system of experiment [4] is N-acetyl-β-D-hexosaminidase. Briefly: Glycosidase assay, N-acetyl-β-D-hexosaminidase. Type of experiment: biochemical. The following applies: 0.2 mM; negative value = stabilisation or promotion.
Experimental: (§2) Enzymes were assayed at 27° C. in 0.1 M citric acid/0.2M disodium hydrogen phosphate buffers at the optimum pH for the enzyme. The incubation mixture consisted of 10 μl enzyme solution, 10 μl of 1 mg/ml aqueous solution of sample and 50 μl of the appropriate 5 mM para-nitrophenyl substrate made up in buffer at the optimum pH for the enzyme. […] Final absorbances were read at 405 nm using a Versamax microplate reader (Molecular Devices). Assays were carried out in triplicate, and the values given are means of the three replicates per assay.
The test system of experiment [5] is equine endometrial explant, Prostaglandin F2α (PGF2α) secretion. Briefly: In vitro equine endometrial explant culture, LPS-stimulated PGF2α secretion. Type of experiment: cell-based, horse. The method, then:
The efficacy of ido-BR1 as an anti-inflammatory agent in a model of mucosal inflammation was tested. The model utilised was previously optimised and established (D M Nash, E A. Lane, S Herath and I M Sheldon (2008) Endometrial Explant Culture for Characterizing Equine Endometritis. American Journal of Reproductive Immunology. 59: 105-117). The model is comprised of an in vitro equine endometrial explant tissue culture system. […]
Uterine tissue was collected from mares at an abattoir, the endometrial (mucosal) surface was dissected out, […] placed in culture as explants. […] The secretion of PGF2α is measured at 24 and 72 h after challenge with LPS in order to represent the innate and chronic immune response respectively.
Explants were treated with control (media alone) or, in order to determine whether ido-BR1 affected spontaneous PGF2α, 0.5, 25 or 100 μg/ml ido-BR1 alone. […] The secretion of PGF2α was measured at 24 and 72 h after treatments were applied. […]

The subject of a further experiment is β-glucuronidase. The conditions noted are these: 0.2 mM.

T1 sequence (P53341 whole entry): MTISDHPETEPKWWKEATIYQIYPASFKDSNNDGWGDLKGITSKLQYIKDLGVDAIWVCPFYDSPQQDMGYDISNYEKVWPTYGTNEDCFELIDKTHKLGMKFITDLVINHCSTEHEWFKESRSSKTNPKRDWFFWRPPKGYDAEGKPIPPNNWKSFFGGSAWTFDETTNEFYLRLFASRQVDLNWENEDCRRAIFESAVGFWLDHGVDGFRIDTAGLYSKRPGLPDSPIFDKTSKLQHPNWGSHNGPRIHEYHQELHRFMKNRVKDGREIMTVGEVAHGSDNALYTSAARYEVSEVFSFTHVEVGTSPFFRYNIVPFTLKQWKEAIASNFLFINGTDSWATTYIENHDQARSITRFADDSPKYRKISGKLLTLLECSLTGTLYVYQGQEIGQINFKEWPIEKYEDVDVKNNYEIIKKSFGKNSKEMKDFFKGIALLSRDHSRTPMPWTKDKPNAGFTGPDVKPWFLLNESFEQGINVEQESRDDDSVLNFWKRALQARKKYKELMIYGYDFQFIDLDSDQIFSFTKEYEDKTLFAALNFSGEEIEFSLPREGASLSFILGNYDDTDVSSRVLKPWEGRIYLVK
Experimental for Amyloglucosidase: as §2
Experimental for Naringinase: as §2
Experimental for glucosidases: as §1
Experimental for α-D-galactosidase: as §1
Experimental for α-D-glucosidase (Rice): as §2
Experimental for α-D-glucosidase (Yeast): as §1
Experimental for α-D-mannosidase: as §1
Experimental for α-L-fucosidase: as §1
Experimental for β-D-galactosidase: as §1
Experimental for β-D-glucosidase: as §1
Experimental for β-D-mannosidase: as §2
Experimental for β-glucuronidase: as §1

Turning to `OC[C@H]1NC[C@H](O)[C@@H](O)[C@@H]1O` [DNJ, reference compound], the “percentage inhibition, N-acetyl-β-D-gluc (Jack bean)” value in experiment [1] is recorded as 2.8%. In addition, the “percentage inhibition, β-D-glucosidase” value in the experiment with β-D-glucosidase was 63.7%. Also, the “percentage inhibition, α-D-galactosidase” value in the experiment on α-D-galactosidase is given as −3.3%. At α-D-glucosidase (Yeast), the “percentage inhibition, α-D-glucosidase (Yeast)” value turned out to be 35.7%. Moreover, the “inhibition of glucosidases (in words)” value in the experiment on glucosidases was “potent inhibition”. The “percentage inhibition, β-D-mannosidase” value in the experiment with β-D-mannosidase is reported as −19.0%. Besides, the “percentage inhibition, α-D-glucosidase (Bacillus)” value in [2] worked out at 99.5%. Moreover, in experiment [3], the “percentage inhibition, N-acetyl-β-D-gluc (Bovine kidney)” value is −0.8%. Further, the “percentage inhibition, Amyloglucosidase” value at Amyloglucosidase is listed as 31.7%. Further, in the experiment on α-L-fucosidase, the “percentage inhibition, α-L-fucosidase” value was 5.9%. Also, in the experiment with Naringinase, the “percentage inhibition, Naringinase” value came to 20.8%. In addition, the “percentage inhibition, α-D-glucosidase (Rice)” value at α-D-glucosidase (Rice) amounted to 99.6%. The “percentage inhibition, α-D-mannosidase” value with α-D-mannosidase came to 26.6%. The “percentage inhibition, β-D-galactosidase” value with β-D-galactosidase was determined as 0.4%. Moreover, in experiment [4], the “percentage inhibition, N-acetyl-β-D-hexosaminidase” value is listed as −5.5%.

Take `O=C(O)[C@@H]1NC[C@H](O)[C@@H](O)[C@@H]1O` [ido-BR1, (2R,3R,4R,5S)-3,4,5-trihydroxypiperidine-2-carboxylic acid]: the “percentage inhibition, N-acetyl-β-D-gluc (Jack bean)” value in experiment [1] is −4.5%. Further, the “PGF2α secretion by LPS-challenged explants versus control (abrogation of inflammation)” value in [5] (3.0 μg/ml LPS with 0.5, 25 or 100 μg/ml ido-BR1, 24 h) is “not significantly different to the control; also recorded: abrogated inflammation in the explants”. Also, in experiment [5] (3.0 μg/ml LPS with ido-BR1, 72 h), the “abrogation of LPS-stimulated PGF2α secretion” value is recorded as “not significant”. The “percentage inhibition, β-D-glucosidase” value in the experiment on β-D-glucosidase was 6.1%. In the experiment with α-D-galactosidase, the “percentage inhibition, α-D-galactosidase” value is −2.7%. For the same compound, at α-D-glucosidase (Yeast) (read-out: percentage inhibition, α-D-glucosidase (Yeast)), the inhibition (usually the share of the control response that was lost under treatment) at 200 µM was 4.7%. Besides, in the experiment on glucosidases, the “inhibition of glucosidases (in words)” value was “very weakly inhibitory”. Besides, in the experiment on β-glucuronidase, the “inhibition of glucuronidase (in words)” value is recorded as “not inhibitory” and the “percentage inhibition, β-glucuronidase” value is on record as 2.5%. Besides, in the experiment on β-D-mannosidase, the “percentage inhibition, β-D-mannosidase” value was −4.4%. Also, the “percentage inhibition, α-D-glucosidase (Bacillus)” value in experiment [2] came to 26.4%. Moreover, the “percentage inhibition, N-acetyl-β-D-gluc (Bovine kidney)” value in experiment [3] is reported as 5.5%. Moreover, in the experiment on α-D-mannosidase, the “effect on alpha-mannosidase activity (in words)” value is recorded as “promote alpha-mannosidase activity slightly” and the “percentage inhibition, α-D-mannosidase” value is −28.4%. Also, the “percentage inhibition, β-D-galactosidase” value in the experiment with β-D-galactosidase is given as 1.0%.

For the origin of these results see US9717718B2, “Anti-inflammatory compounds” (Phytoquest Limited, priority 2011, dated 2017).
